Laboratory results reported in ChEMBL document CHEMBL3881526, “Selective androgen receptor modulators and method of use thereof” (2007).
Activity calls are given as the source filed them. The rule behind the calls is not given here.

Tests used:
Rattus norvegicus [1] = test: Anabolic activity in ORX Sprague-Dawley rat assessed as restoration of levator ani muscle weight at 0.1 to 1 ug/day delivered at constant rate for 14 days via subcutaneous osmotic pumps; assay type: functional
Rattus norvegicus [2] = test: Androgenic activity in ORX Sprague-Dawley rat assessed as restoration of seminal vesicles weight at 0.1 to 1 ug/day delivered at constant rate for 14 days via subcutaneous osmotic pumps; assay type: functional
Rattus norvegicus [3] = test: Androgenic activity in ORX Sprague-Dawley rat assessed as restoration of prostate weight at 0.1 to 1 ug/day delivered at constant rate for 14 days via subcutaneous osmotic pumps; assay type: functional
Bone marrow cell = test: Induction of differentiation of rat primary bone marrow cells toward osteoblast lineage assessed as ALP activity at 1 uM by spectrophotometric analysis; assay type: functional, cell-based
Rattus norvegicus [4] = test: Androgenic activity in ORX Sprague-Dawley rat assessed as restoration of prostate weight at 100 ug/day delivered at constant rate for 14 days via subcutaneous osmotic pumps; assay type: functional
Rattus norvegicus [5] = test: Anabolic activity in ORX Sprague-Dawley rat assessed as restoration of levator ani muscle weight at 100 ug/day delivered at constant rate for 14 days via subcutaneous osmotic pumps; assay type: functional, tissue-based
Rattus norvegicus [6] = test: Suppression of serum FSH in ORX Sprague-Dawley rat at 0.1 to 1 mg/day delivered at constant rate for 14 days via subcutaneous osmotic pumps; assay type: functional
Rattus norvegicus [7] = test: Androgenic activity in ORX Sprague-Dawley rat assessed as restoration of seminal vesicles weight at 100 ug/day delivered at constant rate for 14 days via subcutaneous osmotic pumps; assay type: functional

C[C@](O)(COc1ccc(I)cc1)C(=O)Nc1ccc([N+](=O)[O-])c(C(F)(F)F)c1
Activity (Rattus norvegicus [1]): Active | Activity (Rattus norvegicus [2]): <40% | Activity (Rattus norvegicus [3]): <40%

C[C@](O)(COc1ccc(Cl)cc1)C(=O)Nc1ccc(C#N)c(C(F)(F)F)c1
Activity (Rattus norvegicus [1]): Active | Activity (Rattus norvegicus [2]): Dose-dependent effect | Activity (Rattus norvegicus [3]): Dose-dependent effect

C[C@]12CCC(=O)C[C@@H]1CC[C@@H]1[C@@H]2CC[C@]2(C)[C@@H](O)CC[C@@H]12
Activity (Bone marrow cell): Active

C[C@](O)(COc1ccc(Cl)cc1)C(=O)Nc1ccc([N+](=O)[O-])c(C(F)(F)F)c1
Activity (Rattus norvegicus [1]): Active | Activity (Rattus norvegicus [2]): <20% | Activity (Rattus norvegicus [3]): <20%

C[C@](O)(COc1ccc(Br)cc1)C(=O)Nc1ccc([N+](=O)[O-])c(C(F)(F)F)c1
Activity (Rattus norvegicus [1]): Active | Activity (Rattus norvegicus [2]): <40% | Activity (Rattus norvegicus [3]): <40%

CCC(=O)O[C@H]1CC[C@H]2[C@@H]3CCC4=CC(=O)CC[C@]4(C)[C@H]3CC[C@]12C
Activity (Rattus norvegicus [4]): Active | Activity (Rattus norvegicus [5]): Active | Activity (Rattus norvegicus [6]): Active | Activity (Rattus norvegicus [7]): Active
